{"source": "paper PMC3813006", "about": "(Bioorganic & medicinal chemistry, 2009)", "key": {"Plasmodium falciparum K1": {"tested_on": "Plasmodium falciparum K1", "assay": "microbe, parasite or virus in culture", "settings": "K1, read-out: P. f. IC50"}, "[1]": {"tested_on": "Trypanosoma brucei rhodesiense STIB900", "assay": "In vitro antitrypanosomal assay, T. b. r. STIB900", "format": "cell-based", "settings": "RHODESIENSE|STIB900, read-out: T. b. r. IC50"}, "[2]": {"assay": "Cytotoxicity in cultured L6 rat myoblast cells", "format": "cell-based", "settings": "rat, L6 rat myoblast cells"}, "L6 rat myoblast cells": {"tested_on": "L6 rat myoblast cells", "assay": "Cytotoxicity in cultured L6 rat myoblast cells", "format": "cell-based", "settings": "read-out: Cytotoxicity IC50; cultured L6 rat myoblast cells"}}, "data": [{"smiles": "N=C(N)c1ccc(-c2ccc(-c3ccc(C(=N)N)cn3)o2)cc1", "note": "[3a, azafuramidine]", "values": [{"measurement": "IC50", "setting": "Plasmodium falciparum K1", "value": 0.0065, "unit": "µM"}, {"measurement": "IC50", "setting": "[1]", "value": 0.0065, "unit": "µM"}]}, {"smiles": "N=C(N)c1ccc(-c2ccc(-c3ccc(C(=N)N)cc3)cc2)cc1", "note": "[6a]", "values": [{"measurement": "IC50", "setting": "[2]", "value": 22.1, "unit": "µM"}]}, {"smiles": "N=C(N)c1ccc(-c2ccc(-c3ccc(C(=N)N)cc3)nn2)cc1", "note": "[15b]", "values": [{"measurement": "IC50", "setting": "L6 rat myoblast cells", "value": 31.3, "unit": "µM"}]}]}
